Source: patent US12331041B2, “GLP-1 receptor agonists and uses thereof” (Pfizer Inc., priority 2018, dated 2025)
Where a name gives a salt, the structure may show the parent alone.

How the values were obtained:
[1] = target: T1, human GLP-1R (Homo sapiens, UniProt P43220, L260F); assay: CHO GLP-1R Clone C6 - Assay 2 (HTRF cAMP agonist assay); assay type: cell-based; details: for EC50: CHO clone C6, low GLP-1R density, cAMP, geometric mean; for Emax: CHO clone C6, relative to saturating full agonist GLP-1 (1 μM), arithmetic mean
T1 construct: expressed in transfected cells; host or cells: CHO Flp-In T-REx, clonal line C6 (pcDNA5-FRT-TO)
Procedure: (§1) GLP-1R-mediated agonist activity was determined with a cell-based functional assay utilizing an HTRF (Homogeneous Time-Resolved Fluorescence) cAMP detection kit (cAMP HI Range Assay Kit; Cis Bio cat #62AM6PEJ) that measures cAMP levels in the cell. The method is a competitive immunoassay between native cAMP produced by the cells and exogenous cAMP labeled with the dye d2. The tracer binding is visualized by a mAb anti-cAMP labeled with Cryptate. The specific signal (i.e. energy transfer) is inversely proportional to the concentration of cAMP in either a standard or an experimental sample.
The human GLP-1R coding sequence (NCBI Reference Sequence NP_002053.3, including naturally-occurring variant Leu260Phe) was subcloned into pcDNA5-FRT-TO and a clonal CHO cell line stably expressing a low receptor density was isolated using the Flp-In™ T-Rex™ System, as described by the manufacturer (ThermoFisher).
(§2) A 1 mL sample of the cell suspension in growth media was counted on a Becton Dickinson ViCell to determine cell viability and cell count per mL. The remaining cell suspension was then adjusted with growth media to deliver 1600 viable cells per well using a Matrix Combi Multidrop reagent dispenser, and the cells were dispensed into a white 384 well tissue culture treated assay plate (Corning 3570). The assay plate was then incubated for 48 h at 37° C. in a humidified environment (95% O2, 5% CO2)
(§3) Varying concentrations of each compound to be tested (in DMSO) were diluted in assay buffer [HBSS with Calcium/Magnesium (Lonza/BioWhittaker cat #10-527F)/0.1% BSA (Sigma Aldrich cat #A7409-1L)/20 mM HEPES (Lonza/BioWhittaker cat #17-737E)] containing 100 μM 3-isobutyl-1-methylxanthin (IBMX; Sigma cat #15879). The final DMSO concentration in the compound/assay buffer mixture is 1%.
After 48 h, the growth media was removed from the assay plate wells, and the cells were treated with 20 μL of the serially diluted compound in assay buffer for 30 min at 37° C. in a humidified environment (95% O2, 5% CO2). Following the 30 min incubation, 10 μL of labeled d2 cAMP and 10 μL of anti-cAMP antibody (both diluted 1:20 in cell lysis buffer; as described in the manufacturer's assay protocol) were added to each well of the assay plate. The plates were then incubated at room temperature and after 60 minutes, changes in the HTRF signal were read with an Envision 2104 multi-label plate reader using excitation of 330 nm and emissions of 615 and 665 nm. Raw data were converted to nM cAMP by interpolation from a cAMP standard curve (as described in the manufacturer's assay protocol) and the percent effect was determined relative to a saturating concentration of the full agonist GLP-1 (1 μM) included on each plate. EC50 determinations were made from agonist dose response curves analyzed with a curve fitting program using a 4-parameter logistic dose response equation.

[2] = target: T2, human GLP-1R (Homo sapiens, UniProt P43220, G168S); assay: CHO GLP-1R Clone H6 - Assay 1 (HTRF cAMP agonist assay); assay type: cell-based; details: for EC50: CHO Clone H6, high GLP-1R density, cAMP, geometric mean; for Emax: CHO Clone H6, relative to saturating full agonist GLP-1 7-36 (1 μM), arithmetic mean
T2 construct: expressed in transfected cells
Procedure: as §1, with “CisBio” for “Cis Bio”, “d2,” for “d2.”, “either” for “either a”, “or” for “or an”
The human GLP-1R coding sequence (NCBI Reference Sequence NP_002053.3, including naturally-occurring variant Gly168Ser) was subcloned into pcDNA3 (Invitrogen) and a cell line stably expressing the receptor was isolated (designated Clone H6).
as §2, with “deliver 2000” for “deliver 1600”, “48 hours” for “48 h”, “environment in” for “environment (95% O2,”, “5% carbon dioxide.” for “5% CO2)”
as §3, with “(HBSS” for “[HBSS”, “#17-737E)” for “#17-737E)]”, “concentration” for “concentration in the compound/assay buffer mixture”
After 48 hours, the growth media was removed from the assay plate wells, and the cells were treated with 20 μL of the serially diluted compound in assay buffer for 30 minutes at 37° C. in a humidified environment in 5% carbon dioxide. Following the 30 minute incubation, 10 μL of labeled d2 cAMP and 10 μL of anti-cAMP antibody (both diluted 1:20 in cell lysis buffer; as described in the manufacturer's assay protocol) were added to each well of the assay plate. The plates were then incubated at room temperature and after 60 minutes, changes in the HTRF signal were read with an Envision 2104 multi-label plate reader using excitation of 330 nm and emissions of 615 and 665 nm. Raw data were converted to nM cAMP by interpolation from a cAMP standard curve (as described in the manufacturer's assay protocol) and the percent effect was determined relative to a saturating concentration of the full agonist GLP-17-36 (1 μM) included on each plate. EC50 determinations were made from agonist dose-response curves analyzed with a curve fitting program using a 4-parameter logistic dose response equation.

T1 sequence (P43220 24-463 L260F): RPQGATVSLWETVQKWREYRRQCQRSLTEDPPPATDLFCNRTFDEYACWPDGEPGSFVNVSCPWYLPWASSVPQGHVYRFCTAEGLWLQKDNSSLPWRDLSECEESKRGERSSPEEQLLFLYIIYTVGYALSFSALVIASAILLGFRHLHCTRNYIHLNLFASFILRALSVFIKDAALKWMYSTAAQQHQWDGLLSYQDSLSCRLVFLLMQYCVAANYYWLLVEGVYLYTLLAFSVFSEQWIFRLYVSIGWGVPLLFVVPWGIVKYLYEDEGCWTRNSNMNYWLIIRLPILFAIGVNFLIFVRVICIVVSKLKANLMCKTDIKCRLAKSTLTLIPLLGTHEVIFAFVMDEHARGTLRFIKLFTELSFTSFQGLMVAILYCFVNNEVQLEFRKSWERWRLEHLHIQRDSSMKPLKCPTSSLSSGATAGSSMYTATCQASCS
T2 sequence (P43220 24-463 G168S): as the sequence (P43220 24-463 L260F) above, with G145S, F237L counted along it

| EC50 [1] | Emax [1] | EC50 [2] | Emax [2] | Compound |
| --- | --- | --- | --- | --- |
| 38 nM | 81% | 3.2 nM | 79% | O=C(O)c1ccc2nc(CN3CCC(c4cccnc4OCc4ccc(Cl)cc4F)CC3)n(Cc3ncco3)c2c1 [Example 2, 2-[(4-{2-[(4-chloro-2-fluorobenzyl)oxy]pyridin-3-yl}piperidin-1-yl)methyl]-1-(1,3-oxazol-2-ylmethyl)-1H-benzimidazole-6-carboxylic acid, trifluoroacetate salt] |
| 9 nM | 88% | 0.58 nM | 79% | CCn1cncc1Cn1c(CN2CCC(c3cccnc3OCc3ccc(Cl)cc3F)CC2)nc2ccc(C(=O)O)cc21 [Example 3, 2-[(4-{2-[(4-chloro-2-fluorobenzyl)oxy]pyridin-3-yl}piperidin-1-yl)methyl]-1-[(1-ethyl-1H-imidazol-5-yl)methyl]-1H-benzimidazole-6-carboxylic acid, trifluoroacetate salt] |
| 40 nM | 98% | 3 nM | 77% | N#Cc1ccc(COc2ncccc2C2CCN(Cc3nc4ccc(C(=O)O)cc4n3Cc3ncco3)CC2)c(F)c1 [Example 4, 2-[(4-{2-[(4-cyano-2-fluorobenzyl)oxy]pyridin-3-yl}piperidin-1-yl)methyl]-1-(1,3-oxazol-2-ylmethyl)-1H-benzimidazole-6-carboxylic acid, trifluoroacetate salt] |
| 84 nM | 83% | 4.5 nM | 68% | O=C(O)c1ccc2nc(CN3CCC(c4cccnc4OCc4ccc(Cl)cc4F)CC3)n(Cc3cnco3)c2c1 [Example 6, 2-[(4-{2-[(4-chloro-2-fluorobenzyl)oxy]pyridin-3-yl}piperidin-1-yl)methyl]-1-(1,3-oxazol-5-ylmethyl)-1H-benzimidazole-6-carboxylic acid, trifluoroacetate salt] |
| 190 nM | 81% | 8.9 nM | 81% | O=C(O)c1ccc2nc(CN3CCC(c4cccnc4OCc4ccc(Cl)cc4F)CC3)n(Cc3ncco3)c2n1 [Example 7, 2-[(4-{2-[(4-chloro-2-fluorobenzyl)oxy]pyridin-3-yl}piperidin-1-yl)methyl]-3-(1,3-oxazol-2-ylmethyl)-3H-imidazo[4,5-b]pyridine-5-carboxylic acid, trifluoroacetate salt] |
| 230 nM | 76% | 6 nM | 72% | O=C(O)c1ccc2nc(CN3CCC(c4cccnc4OCc4ccc(Cl)cc4F)CC3)n(C[C@H]3CCOC3)c2c1 [Example 8, 2-[(4-{2-[(4-chloro-2-fluorobenzyl)oxy]pyridin-3-yl}piperidin-1-yl)methyl]-1-[(3R)-tetrahydrofuran-3-ylmethyl]-1H-benzimidazole-6-carboxylic acid, trifluoroacetate salt] |
| 700 nM | 81% | 28 nM | 77% | COCCn1c(CN2CCC(c3cccnc3OCc3ccc(C#N)cc3F)CC2)nc2ccc(C(=O)O)cc21 [Example 9, 2-[(4-{2-[(4-cyano-2-fluorobenzyl)oxy]pyridin-3-yl}piperidin-1-yl)methyl]-1-(2-methoxyethyl)-1H-benzimidazole-6-carboxylic acid, trifluoroacetate salt] |
| 49 nM | 100% | 1.9 nM | 83% | Cn1cncc1Cn1c(CN2CCC(c3cccnc3OCc3ccc(Cl)cc3F)CC2)nc2ccc(C(=O)O)cc21 [Example 11, 2-[(4-{2-[(4-chloro-2-fluorobenzyl)oxy]pyridin-3-yl}piperidin-1-yl)methyl]-1-[(1-methyl-1H-imidazol-5-yl)methyl]-1H-benzimidazole-6-carboxylic acid, trifluoroacetate salt] |
| 110 nM | 93% | 4.7 nM | 78% | O=C(O)c1ccc2nc(CN3CCC(c4cccnc4OCc4ccc(F)cc4F)CC3)n(C[C@@H]3CCO3)c2c1 [Example 12, ammonium 2-[(4-{2-[(2,4-difluorobenzyl)oxy]pyridin-3-yl}piperidin-1-yl)methyl]-1-[(2S)-oxetan-2-ylmethyl]-1H-benzimidazole-6-carboxylate] |
| 270 nM | 91% | 6 nM | 80% | N#Cc1ccc(COc2ncccc2C2CCN(Cc3nc4ccc(C(=O)O)cc4n3C[C@@H]3CCCO3)CC2)c(F)c1 [Example 13, 2-[(4-{2-[(4-cyano-2-fluorobenzyl)oxy]pyridin-3-yl}piperidin-1-yl)methyl]-1-[(2S)-tetrahydrofuran-2-ylmethyl]-1H-benzimidazole-6-carboxylic acid, trifluoroacetate salt] |
| 540 nM | 120% | 14 nM | 77% | O=C(O)c1ccc2nc(CN3CCC(c4cccnc4OCc4ccc(Cl)cc4F)CC3)n(CCN3CCOC3=O)c2c1 [Example 14, 2-[(4-{2-[(4-chloro-2-fluorobenzyl)oxy]pyridin-3-yl}piperidin-1-yl)methyl]-1-[2-(2-oxo-1,3-oxazolidin-3-yl)ethyl]-1H-benzimidazole-6-carboxylic acid, trifluoroacetate salt] |
| 21 nM | 91% | 0.96 nM | 81% | CCn1cncc1Cn1c(CN2CCC(c3cccnc3OCc3ccc(Cl)cc3F)CC2)nc2ccc(C(=O)O)nc21 [Example 15, 2-[(4-{2-[(4-chloro-2-fluorobenzyl)oxy]pyridin-3-yl}piperidin-1-yl)methyl]-3-[(1-ethyl-1H-imidazol-5-yl)methyl]-3H-imidazo[4,5-b]pyridine-5-carboxylic acid, trifluoroacetate salt] |
| 18 nM | 130% | 0.99 nM | 87% | CCn1cncc1Cn1c(CN2CCC(c3cccnc3OCc3ccc(C#N)cc3F)CC2)nc2ccc(C(=O)O)cc21 [Example 16, 2-[(4-{2-[(4-cyano-2-fluorobenzyl)oxy]pyridin-3-yl}piperidin-1-yl)methyl]-1-[(1-ethyl-1H-imidazol-5-yl)methyl]-1H-benzimidazole-6-carboxylic acid, trifluoroacetate salt] |
